Consider 12 compounds from patent US12509460B2 (Skyhawk Therapeutics, Inc., priority 2019, dated 2025).

The test system of data set [1] is mHTT protein in GM04724 (CAG 70/20) Huntington's disease patient lymphoblast cells. The data set can be described thus: mHTT protein assay, 2B7-MW1 assay via Mesoscale Discovery (MSD). The format is cell-based, human. Conditions: GM04724 Huntington's disease patient lymphoblasts. The procedure: Example A10: mHTT Protein Assay
Compounds are tested on GM04724 (CAG 70/20) Huntington's disease patient lymphoblast cells at doses ranging from 10 μM to 0.6 nM. 4,500 cells/well are seeded in 384 well plates. One plate replica is carried out for parallel viability testing by CellTiter Glo (CTG). Compounds are incubated for 48 hours. mHTT protein levels are assessed by the 2B7-MW1 assay via Mesoscale Discovery (MSD) as previously reported (Macdonald et al., 2014). The antibody pair is comprised of previously characterized monoclonals (2B7 and MW1) interrogating two regions for HTT conformation and biological properties: the N, 17 domain and the polyQ domain (Baldo et al., 2012; Ko et., 2001). 2B7-MW1 is […] specific levels of HTT at the time of treatment. 2B7-MW1 is dependent on polyQ expansion (e.g., the higher the expansion the higher the signal) and on mHTT size (e.g., a similar polyQ will give higher signal with smaller HTT size). The viability readout is carried out by CTG according to the manufacturer's instructions.

For data set [2], the system named is SMN protein in spinal muscular atrophy (SMA) patient fibroblasts (GM03813, Coriell). The data set can be described thus: SMN protein assay, Mesoscale Discovery (MSD). The note with it: SMA patient fibroblasts GM03813, 48 hours, MSD; for EC50: read-out: SMN2 protein EC50. Type of data set: cell-based, human. The method, then:
Example A12: SMN Protein Assay
Compounds are tested on spinal muscular atrophy (SMA) patient fibroblasts (GM03813, Coriell) at doses ranging from 2.5 μM to 0.6 nM. 7000 cells/well are seeded in 96-well plates. Compounds are incubated for 48 hours and the cells were lysed with 100 μL of lysis buffer. 20 μL of lysate is used for SMN protein measurement by Mesoscale Discovery (MSD) assay developed by PharmOptima (Michigan). A standard curve prepared with SMN protein ranging from 1 μg/ml to 19.5 pg/ml is used in each MSD plate to calculate the absolute SMN protein amount in each sample.

The subject of a further data set is MDR1 (P-gp). The data set can be described thus: Blood-brain-barrier (BBB) penetration potential via MDCK-MDR1 permeability assay. Conditions: dog; for Papp A→B at 120 min, 5 μM: MDCK-MDR1, pH 7.4, MDCK-MDR1: Papp A-B, A-B direction; for Papp B→A at 120 min, 5 μM: MDCK-MDR1, pH 7.4, MDCK-MDR1: Papp B-A, B-A direction.
Data set [3] deals with MDR1-MDCK cell monolayers. The description is as above. The note with it: for MDCK-MDR1: % Recov A-B: A-B direction; for MDCK-MDR1: % Recov B-A: B-A direction.
In a further data set the test system is MDR1. The description is as above. The note with it: dog, MDCK-MDR1, pH 7.4, MDCK-MDR1: Efflux, efflux ratio.

Consider `COc1cn(-c2ccc(-c3ccc(N(C)[C@H]4C[C@@H]5CC(F)(F)[C@H](C4)N5)nn3)c(O)c2)cn1` [Compound 19B, 2-(6-(((1R,3S,5S)-6,6-difluoro-8-azabicyclo[3.2.1]octan-3-yl)(methyl)amino)pyridazin-3-yl)-5-(4-methoxy-1H-imidazol-1-yl)phenol], for which the “mHTT protein EC50” value in data set [1] is “E (501 ≤ E ≤ 10.000)”. Moreover, the concentration giving a half-maximal response (EC50) in data set [2] was 51 to 100 nM. For the same compound, in the data set on MDR1 (P-gp), the Papp A→B at 120 min, 5 μM worked out at 12.2 ×10⁻⁶ cm/s and the Papp B→A at 120 min, 5 μM stood at 63.3 ×10⁻⁶ cm/s. Besides, in data set [3], the “MDCK-MDR1: % Recov A-B” value amounted to 91% and the “MDCK-MDR1: % Recov B-A” value came to 88%. In addition, the efflux ratio at 120 min, 5 μM in the data set on MDR1 was found to be 5.

Compound `CN(c1ccc(-c2ccc(-c3cnn(C(F)F)c3)cc2O)nn1)[C@H]1C[C@@H]2CCC[C@@H](N2)[C@H]1F` [Compound 21B] displayed an EC50 in data set [1] of 16 to 50 nM. For the same compound, in data set [2], the EC50 lay within 0.01 to 15 nM. In the data set on MDR1 (P-gp), this compound returned a Papp A→B at 120 min, 5 μM of 1.73 ×10⁻⁶ cm/s and a Papp B→A at 120 min, 5 μM of 30.4 ×10⁻⁶ cm/s. For the same compound, in data set [3], the “MDCK-MDR1: % Recov A-B” value amounted to 39% and the “MDCK-MDR1: % Recov B-A” value is 68%. Besides, the efflux ratio at 120 min, 5 μM in the data set with MDR1 was 18.

Turning to `Cc1cnc(-c2ccc(-c3ccc(N(C)[C@@H]4C[C@H]5CCC[C@H](N5)[C@@H]4F)nn3)c(O)c2)cn1` [Compound 26A, 2-(6-(((1S,2S,3R,5R)-2-fluoro-9-azabicyclo[3.3.1]nonan-3-yl)(methyl)amino)pyridazin-3-yl)-5-(5-methylpyrazin-2-yl)phenol], the EC50 in data set [1] was in the range of 101 to 500 nM. In addition, in data set [2], the 50% effective concentration (EC50) fell in the range of 51 to 100 nM. For the same compound, in the data set with MDR1 (P-gp), the apical-to-basolateral permeability (Papp A→B) at 120 min, 5 μM was 2.09 ×10⁻⁶ cm/s and the Papp B→A at 120 min, 5 μM turned out to be 43.6 ×10⁻⁶ cm/s. In data set [3], the “MDCK-MDR1: % Recov A-B” value was 65% and the “MDCK-MDR1: % Recov B-A” value is 77%. Further, in the data set on MDR1, the efflux ratio at 120 min, 5 μM was 21.

Regarding `CN(c1ccc(-c2ccc(-c3cnc(C#N)cn3)cc2O)nn1)[C@@H]1C[C@H]2CCC[C@H](N2)[C@@H]1F` [Compound 28A, 5-(4-(6-(((1S,2S,3R,5R)-2-fluoro-9-azabicyclo[3.3.1]nonan-3-yl)(methyl)amino)pyridazin-3-yl)-3-hydroxyphenyl) pyrazine-2-carbonitrile], in data set [1], the EC50 lay within 16 to 50 nM. In data set [2], the “SMN2 protein EC50” value is reported as “E (501 ≤ E ≤ 10.000)”. In the data set on MDR1 (P-gp), this compound had a Papp A→B at 120 min, 5 μM of 1.41 ×10⁻⁶ cm/s and a Papp B→A at 120 min, 5 μM of 28.4 ×10⁻⁶ cm/s. Also, in data set [3], the “MDCK-MDR1: % Recov A-B” value stood at 40% and the “MDCK-MDR1: % Recov B-A” value is 61%. Moreover, the efflux ratio at 120 min, 5 μM in the data set with MDR1 stood at 20.

Take `CN(c1ccc(-c2ccc(C3=CCCC3)cc2O)nn1)[C@@H]1C[C@H]2CC[C@H](N2)[C@@H]1F` [Compound 34A, 5-(cyclopent-1-en-1-yl)-2-(6-(((1S,2S,3R,5R)-2-fluoro-8-azabicyclo[3.2.1]octan-3-yl)(methyl)amino)pyridazin-3-yl)phenol]: the EC50 in data set [1] fell in the range of 101 to 500 nM. Further, the EC50 in data set [2] lay in the range of 16 to 50 nM. In the data set with MDR1 (P-gp), this compound showed a Papp A→B at 120 min, 5 μM of 0.63 ×10⁻⁶ cm/s and a Papp B→A at 120 min, 5 μM of 1.05 ×10⁻⁶ cm/s. In addition, in data set [3], the “MDCK-MDR1: % Recov A-B” value was 8% and the “MDCK-MDR1: % Recov B-A” value is recorded as 55%. The efflux ratio at 120 min, 5 μM in the data set with MDR1 was found to be 2.

For `CC(=O)N(C)c1ccc(-c2ccc(N(C)[C@H]3C[C@@H]4CC[C@@H](N4)[C@H]3F)nn2)c(O)c1` [Compound 35B, N-(4-(6-(((1R,2R,3S,5S)-2-fluoro-8-azabicyclo[3.2.1]octan-3-yl)(methyl)amino)pyridazin-3-yl)-3-hydroxyphenyl)-N-methylacetamide], the “mHTT protein EC50” value in data set [1] is recorded as “E (501 ≤ E ≤ 10.000)”. In data set [2], the EC50 is 0.01 to 15 nM. Further, in the data set with MDR1 (P-gp), the Papp A→B at 120 min, 5 μM was 0.23 ×10⁻⁶ cm/s and the Papp B→A at 120 min, 5 μM is 42 ×10⁻⁶ cm/s. Besides, in data set [3], the “MDCK-MDR1: % Recov A-B” value is on record as 103% and the “MDCK-MDR1: % Recov B-A” value was found to be 99%. In the data set on MDR1, the efflux ratio at 120 min, 5 μM is 181.

Take `CN(c1ccc(-c2ccc(-n3cnc(Cl)c3)cc2O)nn1)[C@H]1C[C@@H]2CC(F)(F)[C@H](C1)N2` [Compound 37B, 5-(4-chloro-1H-imidazol-1-yl)-2-(6-(((1R,3S,5S)-6,6-difluoro-8-azabicyclo[3.2.1]octan-3-yl)(methyl)amino)pyridazin-3-yl)phenol]: the EC50 in data set [1] lay within 51 to 100 nM. The EC50 in data set [2] fell in the range of 101 to 500 nM. In addition, in the data set with MDR1 (P-gp), the Papp A→B at 120 min, 5 μM was 19 ×10⁻⁶ cm/s and the Papp B→A at 120 min, 5 μM was 32.7 ×10⁻⁶ cm/s. Also, in data set [3], the “MDCK-MDR1: % Recov A-B” value turned out to be 54% and the “MDCK-MDR1: % Recov B-A” value came to 70%. Also, in the data set with MDR1, the efflux ratio at 120 min, 5 μM amounted to 2.

For the compound `CN(c1ccc(-c2ccc(C#N)cc2O)nn1)[C@H]1C[C@@H]2CCC[C@@H](N2)[C@H]1F` [Compound 39B, 4-(6-(((1R,2R,3S,5S)-2-fluoro-9-azabicyclo[3.3.1]nonan-3-yl)(methyl)amino)pyridazin-3-yl)-3-hydroxybenzonitrile], in data set [1], the EC50 was 101 to 500 nM. For the same compound, the EC50 in data set [2] fell in the range of 16 to 50 nM. Besides, in the data set on MDR1 (P-gp), the apical-to-basolateral permeability (Papp A→B) at 120 min, 5 μM was determined as 4.57 ×10⁻⁶ cm/s and the Papp B→A at 120 min, 5 μM was found to be 40.6 ×10⁻⁶ cm/s. Moreover, in data set [3], the “MDCK-MDR1: % Recov A-B” value was found to be 96% and the “MDCK-MDR1: % Recov B-A” value was found to be 86%. Further, in the data set with MDR1, the efflux ratio at 120 min, 5 μM was 9.

On to `Cc1cnc(-c2ccc(-c3ccc(N(C)[C@@H]4C[C@H]5CC[C@H](N5)[C@@H]4F)nn3)c(O)c2)o1` [Compound 48A, 2-(6-(((1S,2S,3R,5R)-2-fluoro-8-azabicyclo[3.2.1]octan-3-yl)(methyl)amino)pyridazin-3-yl)-5-(5-methyloxazol-2-yl)phenol], for which the EC50 in data set [1] fell in the range of 51 to 100 nM. For the same compound, in data set [2], the EC50 was in the range of 0.01 to 15 nM. In the data set on MDR1 (P-gp), this compound yielded a Papp A→B at 120 min, 5 μM of 3.71 ×10⁻⁶ cm/s and a basolateral-to-apical permeability (Papp B→A) at 120 min, 5 μM of 29 ×10⁻⁶ cm/s. Moreover, in data set [3], the “MDCK-MDR1: % Recov A-B” value is reported as 58% and the “MDCK-MDR1: % Recov B-A” value was determined as 76%. The efflux ratio at 120 min, 5 μM in the data set on MDR1 amounted to 8.

In the case of `CN(c1ccc(-c2cc3cncnc3cc2O)nn1)[C@@H]1C[C@H]2CC[C@H](N2)[C@@H]1F` [Compound 75A, 6-(6-(((1S,2S,3R,5R)-2-fluoro-8-azabicyclo[3.2.1]octan-3-yl)(methyl)amino)pyridazin-3-yl)quinazolin-7-ol], the EC50 in data set [1] lay in the range of 101 to 500 nM. For the same compound, the EC50 in data set [2] lay in the range of 51 to 100 nM. In the data set on MDR1 (P-gp), this compound gave a Papp A→B at 120 min, 5 μM of 2.31 ×10⁻⁶ cm/s and a basolateral-to-apical permeability (Papp B→A) at 120 min, 5 μM of 50.3 ×10⁻⁶ cm/s. In data set [3], the “MDCK-MDR1: % Recov A-B” value is reported as 101% and the “MDCK-MDR1: % Recov B-A” value was 100%. In addition, in the data set on MDR1, the efflux ratio at 120 min, 5 μM worked out at 22.

The compound `CN(C)C(=O)c1cc2cc(O)c(-c3ccc(N(C4CC4)[C@H]4C[C@@H]5CC[C@@H](N5)[C@H]4F)nn3)cc2o1` [Compound 86B, 6-(6-(cyclopropyl((1R,2R,3S,5S)-2-fluoro-8-azabicyclo[3.2.1]octan-3-yl)amino)pyridazin-3-yl)-5-hydroxy-N,N-dimethylbenzofuran-2-carboxamide] returned an EC50 in data set [1] of 16 to 50 nM. Further, the concentration for a half-maximal effect (EC50) in data set [2] was in the range of 51 to 100 nM. In the data set on MDR1 (P-gp), this compound displayed a Papp A→B at 120 min, 5 μM of 0.81 ×10⁻⁶ cm/s and a Papp B→A at 120 min, 5 μM of 53.6 ×10⁻⁶ cm/s. Besides, in data set [3], the “MDCK-MDR1: % Recov A-B” value amounted to 88% and the “MDCK-MDR1: % Recov B-A” value is on record as 92%. For the same compound, the efflux ratio at 120 min, 5 μM in the data set with MDR1 came out at 66.

In turn, `CN(c1ccc(-c2cc3cnccc3cc2O)nn1)[C@H]1C[C@@H]2CC[C@H]([C@H]1F)N2C` [Compound 93B, 7-(6-(((1R,2R,3S,5S)-2-fluoro-8-methyl-8-azabicyclo[3.2.1]octan-3-yl)(methyl)amino)pyridazin-3-yl)isoquinolin-6-ol] returned a concentration giving a half-maximal response (EC50) in data set [1] of 101 to 500 nM. Further, in data set [2], the EC50 lay in the range of 51 to 100 nM. In the data set on MDR1 (P-gp), this compound came in with a Papp A→B at 120 min, 5 μM of 5.39 ×10⁻⁶ cm/s and a Papp B→A at 120 min, 5 μM of 22.3 ×10⁻⁶ cm/s. For the same compound, in data set [3], the “MDCK-MDR1: % Recov A-B” value was determined as 45% and the “MDCK-MDR1: % Recov B-A” value is reported as 63%. Besides, in the data set with MDR1, the efflux ratio at 120 min, 5 μM worked out at 4.
